Source: US20130217664A1, “NOVEL COMPOUNDS USEFUL FOR THE TREATMENT OF DEGENERATIVE AND INFLAMMATORY DISEASES” (priority 2012, published 2013)

Tests used:
Assay type in all cases: biochemical
human JAK3 = target: T1, human JAK3 (Homo sapiens, UniProt P52333); assay: JAK3 inhibition assay; conditions: recombinant human JAK3 catalytic domain; polyGT substrate
T1 construct: catalytic domain (amino acids 781-1124; catalog number PV3855); purchased Invitrogen PV3855
Experimental: 1.3 JAK3 Inhibition Assay
0.5 ng JAK3 protein was incubated with 2.5 μg polyGT substrate (Sigma catalog number P0275) in kinase reaction buffer (25 mM Tris pH 7.5, 0.5 mM EGTA, 10 mM MgCl2, 2.5 mM DTT, 0.5 mM Na3VO4, 5 mM b-glycerolphosphate, 0.01% Triton X-100, 1 μM non-radioactive ATP, 0.25 μCi 33P-gamma-ATP (GE Healthcare, catalog number AH9968) final concentrations) with or without 5 μL containing test compound or vehicle (DMSO, 1% final concentration), in a total volume of 25 μL, in a polypropylene 96-well plate (Greiner, V-bottom). After 45 min at 30° C., reactions were stopped by adding 25 μL/well of 150 mM phosphoric acid. […] Plates were washed 6 times with 300 μL per well of a 75 mM phosphoric acid solution and the bottom of the plates was sealed. 40 μL/well of Microscint-20 was added, the top of the plates was sealed and readout was performed using the Topcount (Perkin Elmer). Kinase activity was calculated by subtracting counts per min (cpm) obtained in the presence of a positive control inhibitor (10 μM staurosporine) from cpm obtained in the presence of vehicle. The ability of a test compound to inhibit this activity was determined as:
(§1) Percentage inhibition=((cpm determined for sample with test compound present−cpm determined for sample with positive control inhibitor)divided by(cpm determined in the presence of vehicle−cpm determined for sample with positive control inhibitor))*100.
(§2) Dose dilution series were prepared for the compounds enabling the testing of dose-response effects in the JAK3 assay and the calculation of the IC50 for each compound. Each compound was routinely tested at concentration of 20 μM followed by a 1/5 serial dilution, 10 points in a final concentration of 1% DMSO.

human TYK2 = target: T2, human TYK2 (Homo sapiens, UniProt P29597); assay: TYK2 inhibition assay; conditions: recombinant human TYK2 catalytic domain, polyGT substrate
T2 construct: catalytic domain (amino acids 871-1187; catalog number 08-147); purchased Carna Biosciences 08-147
T2 sequence (P29597 871-1187): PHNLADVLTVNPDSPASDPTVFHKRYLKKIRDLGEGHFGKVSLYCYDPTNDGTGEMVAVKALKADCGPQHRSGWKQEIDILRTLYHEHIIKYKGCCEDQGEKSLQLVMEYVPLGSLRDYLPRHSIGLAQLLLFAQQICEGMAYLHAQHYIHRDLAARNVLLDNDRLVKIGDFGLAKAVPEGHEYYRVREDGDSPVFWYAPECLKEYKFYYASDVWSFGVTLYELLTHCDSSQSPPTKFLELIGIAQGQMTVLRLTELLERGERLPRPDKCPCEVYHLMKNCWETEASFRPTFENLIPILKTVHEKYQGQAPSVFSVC
Experimental: 1.4 TYK2 Inhibition Assay
After 90 min at 30° C., reactions were stopped by adding 25 μL/well of 150 mM phosphoric acid. […] Plates were washed 6 times with 300 μL per well of a 75 mM phosphoric acid solution and the bottom of the plates was sealed. 40 μL/well of Microscint-20 was added, the top of the plates was sealed and readout was performed using the Topcount (Perkin Elmer). Kinase activity was calculated by subtracting counts per min (cpm) obtained in the presence of a positive control inhibitor (10 μM staurosporine) from cpm obtained in the presence of vehicle. The ability of a test compound to inhibit this activity was determined as:
as §1
Dose dilution series were prepared for the compounds enabling the testing of dose-response effects in the TYK2 assay and the calculation of the IC50 for each compound.

human JAK1 = target: T3, human JAK1 (Homo sapiens, UniProt P23458); assay: JAK1 inhibition assay (polyGT substrate / Ulight-JAK1 peptide); conditions: recombinant human JAK1 catalytic domain; polyGT or Ulight-JAK1 peptide assay
T3 construct: catalytic domain, amino acids 866-1154; catalog number PV4774; purchased Invitrogen PV4774
T3 sequence (P23458 866-1154): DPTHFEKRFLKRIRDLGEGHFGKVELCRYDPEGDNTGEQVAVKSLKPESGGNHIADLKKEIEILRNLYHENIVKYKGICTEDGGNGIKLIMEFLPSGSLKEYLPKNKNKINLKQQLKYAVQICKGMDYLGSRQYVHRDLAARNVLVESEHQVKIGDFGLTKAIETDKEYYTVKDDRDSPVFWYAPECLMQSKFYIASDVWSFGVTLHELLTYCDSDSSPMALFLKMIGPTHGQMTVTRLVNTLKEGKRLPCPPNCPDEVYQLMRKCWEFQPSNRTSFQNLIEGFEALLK
Experimental: 1.1 JAK1 Inhibition Assay
1.1.1 JAK1 Assay polyGT Substrate
After 45 min at 30° C., reactions are stopped by adding of 25 μL/well of 150 mM phosphoric acid. […] Plates are washed 6 times with 300 μL per well of a 75 mM phosphoric acid solution and the bottom of the plates is sealed. 40 μL/well of Microscint-20 is added, the top of the plates is sealed and readout is performed using the Topcount (Perkin Elmer). Kinase activity is calculated by subtracting counts per min (cpm) obtained in the presence of a positive control inhibitor (10 μM staurosporine) from cpm obtained in the presence of vehicle. The ability of a test compound to inhibit this activity is determined as:
as §1
Dose dilution series are prepared for the compounds enabling the testing of dose-response effects in the JAK1 assay and the calculation of the IC50 for each compound.
1.1.2 JAK1 Ulight-JAK1 Peptide Assay
After 60 min at room temperature, reactions were stopped by adding 20 μL/well of detection mixture (1× detection buffer (Perkin Elmer, catalog number CR97-100C), 0.5 nM Europium-anti-phosphotyrosine (PT66) (Perkin Elmer, catalog number AD0068), 10 mM EDTA). […] Kinase activity was calculated by subtracting relative fluorescence units (RFU) obtained in the presence of a positive control inhibitor (10 μM staurosporine) from RFU obtained in the presence of vehicle. The ability of a test compound to inhibit this activity was determined as:
Percentage inhibition=((RFU determined for sample with test compound present−RFU determined for sample with positive control inhibitor)divided by(RFU determined in the presence of vehicle−RFU determined for sample with positive control inhibitor))*100.
as §2, with “JAK1” for “JAK3”, “the” for “each”, “is” for “was”, “DMSO. […] The data are expressed as the average IC50 from the assays±standard error of the mean.” for “DMSO.”

T1 sequence (P52333 781-1124): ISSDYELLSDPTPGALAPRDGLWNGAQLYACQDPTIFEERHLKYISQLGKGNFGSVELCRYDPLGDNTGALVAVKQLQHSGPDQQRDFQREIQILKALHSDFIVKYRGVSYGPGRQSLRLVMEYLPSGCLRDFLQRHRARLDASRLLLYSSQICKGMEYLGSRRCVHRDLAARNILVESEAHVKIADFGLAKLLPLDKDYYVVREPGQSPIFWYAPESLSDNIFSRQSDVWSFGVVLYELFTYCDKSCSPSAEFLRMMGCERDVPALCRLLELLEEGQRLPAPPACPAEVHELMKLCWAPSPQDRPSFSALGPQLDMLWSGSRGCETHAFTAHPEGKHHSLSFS

Row | SMILES | IC50 (human JAK3) | IC50 (human TYK2) | IC50 (human JAK1)
1 | CCc1ccccc1N(C)c1cc2c(cn1)ncn2C [Compound 16, (2-Ethyl-phenyl)-methyl-(1-methyl-1H-imidazo[4,5-c]pyridin-6-yl)-amine] | 501 to 1000 nM | 101 to 500 nM | 
2 | CCc1cc(-c2ccc(OC)nc2)ccc1N(C)c1cc2c(cn1)ncn2C [Compound 130, N-(2-ethyl-4-(6-methoxypyridin-3-yl)phenyl)-N,1-dimethyl-1H-imidazo[4,5-c]pyridin-6-amine] | 101 to 500 nM | 0.01 to 100 nM | 0.01 to 100 nM
3 | CCc1cc(C(=O)NCC(C)(C)O)ccc1N(C)c1cc2c(cn1)ncn2C [Compound 161, 3-ethyl-N-(2-hydroxy-2-methylpropyl)-4-(methyl(1-methyl-1H-imidazo[4,5-c]pyridin-6-yl)amino)benzamide] | > 1000 nM | > 1000 nM | 101 to 500 nM
4 | CCc1cc(-c2ccc(C#N)cc2)ccc1N(C)c1cc2c(cn1)ncn2C [Compound 162, 3′-ethyl-4′-(methyl(1-methyl-1H-imidazo[4,5-c]pyridin-6-yl)amino)biphenyl-4-carbonitrile] | 101 to 500 nM | 0.01 to 100 nM | 0.01 to 100 nM
5 | CCc1cc(C(=O)NC2(C#N)CCN(C)CC2)ccc1N(C)c1cc2c(cn1)ncn2C [Compound 166, N-(4-cyano-1-methylpiperidin-4-yl)-3-ethyl-4-(methyl(1-methyl-1H-imidazo[4,5-c]pyridin-6-yl)amino)benzamide] | > 1000 nM | > 1000 nM | 0.01 to 100 nM
6 | CCc1cc(C(=O)NC#N)ccc1N(C)c1cc2c(cn1)ncn2C [Compound 179, N-Cyano-3-ethyl-4-(methyl(1-methyl-1H-imidazo[4,5-c]pyridin-6-yl)amino)benzamide] | 101 to 500 nM | 0.01 to 100 nM | 0.01 to 100 nM
7 | CCc1cc(O[C@H]2CCN(S(C)(=O)=O)C2)ccc1N(C)c1cc2c(cn1)ncn2C [Compound 260, (S)-N-(2-ethyl-4-(1-(methylsulfonyl)pyrrolidin-3-yloxy)phenyl)-N,1-dimethyl-1H-imidazo[4,5-c]pyridin-6-amine] | 101 to 500 nM | 101 to 500 nM | 0.01 to 100 nM
8 | COc1cc(-c2cccs2)ncc1N(C)c1cc2c(cn1)ncn2C [Compound 264] | 101 to 500 nM | 0.01 to 100 nM | 0.01 to 100 nM
9 | CCc1cc(-c2ccsc2)ncc1N(C)c1cc2c(cn1)ncn2C [Compound 288, (4-Ethyl-6-thiophen-3-yl-pyridin-3-yl)-methyl-(1-methyl-1H-imidazo[4,5-c]pyridin-6-yl)-amine] | 0.01 to 100 nM | 0.01 to 100 nM | 0.01 to 100 nM
10 | CCc1cc(-c2cccs2)ncc1N(C)c1cc2c(cn1)ncn2C [Compound 289] | 0.01 to 100 nM | 0.01 to 100 nM | 0.01 to 100 nM

Second part, the compound after the results:

Row | IC50 (human JAK3) | IC50 (human TYK2) | IC50 (human JAK1) | SMILES
11 | > 1000 nM | > 1000 nM | 101 to 500 nM | CCc1cc(C(=O)NCC2CCCCN2C)ccc1N(C)c1cc2c(cn1)ncn2C (centres unmarked) [Compound 165, 3-ethyl-4-(methyl(1-methyl-1H-imidazo[4,5-c]pyridin-6-yl)amino)-N-((1-methylpiperidin-2-yl)methyl)benzamide]
12 | 0.01 to 100 nM | 0.01 to 100 nM | 0.01 to 100 nM | CCc1cc(C2CN(S(C)(=O)=O)C2)ccc1N(C)c1cc2c(cn1)ncn2C [Compound 290, [2-Ethyl-4-(1-methanesulfonyl-azetidin-3-yl)-phenyl]-methyl-(1-methyl-1H-imidazo[4,5-c]pyridin-6-yl)-amine]
13 | > 1000 nM | 101 to 500 nM | 0.01 to 100 nM | CCc1cc(CNC2CCN(C(=O)OC(C)(C)C)C2)ccc1N(C)c1cc2c(cn1)ncn2C (centres unmarked) [Compound 291, 3-{3-Ethyl-4-[methyl-(1-methyl-1H-imidazo[4,5-c]pyridin-6-yl)-amino]-benzylamino}-pyrrolidine-1-carboxylic acid tert-butyl ester]
14 | 0.01 to 100 nM | 101 to 500 nM | 0.01 to 100 nM | CCc1cc(CN(C)S(=O)(=O)C2CC2)ccc1N(C)c1cc2c(cn1)ncn2C [Compound 292, Cyclopropanesulfonic acid {3-ethyl-4-[methyl-(1-methyl-1H-imidazo[4,5-c]pyridin-6-yl)-amino]-benzyl}-methyl-amide]
15 | > 1000 nM | > 1000 nM | 0.01 to 100 nM | CCc1cc(CNC2CCNC2)ccc1N(C)c1cc2c(cn1)ncn2C (centres unmarked) [Compound 293, [2-Ethyl-4-(pyrrolidin-3-ylaminomethyl)-phenyl]-methyl-(1-methyl-1H-imidazo[4,5-d]pyridin-6-yl)-amine]
16 | 0.01 to 100 nM | 0.01 to 100 nM | 0.01 to 100 nM | CCc1cc(CN(C)S(=O)(=O)CC)ccc1N(C)c1cc2c(cn1)ncn2C [Compound 294, Ethanesulfonic acid {3-ethyl-4-[methyl-(1-methyl-1H-imidazo[4,5-c]pyridin-6-yl)-amino]-benzyl}-methyl-amide]
